Reference: publication PMC12828229, “Aspergillus fumigatus PolX1 is an early ancestor of vertebrate terminal deoxynucleotidyl transferases” (Nucleic Acids Research, 2026)

Target: T1, AfPolX1 (Aspergillus fumigatus, UniProt Q4X1T5)
T1 construct: gene AFUA_2G08840; catalytic core (8 kDa, fingers, palm, thumb), residues 297-704 in methods, 298-704 in results; codon-optimised in pET28a(+), E. coli Rosetta 2 (DE3); N-terminal His6 tag cut off with TEV protease
T1 sequence (Q4X1T5 297-704): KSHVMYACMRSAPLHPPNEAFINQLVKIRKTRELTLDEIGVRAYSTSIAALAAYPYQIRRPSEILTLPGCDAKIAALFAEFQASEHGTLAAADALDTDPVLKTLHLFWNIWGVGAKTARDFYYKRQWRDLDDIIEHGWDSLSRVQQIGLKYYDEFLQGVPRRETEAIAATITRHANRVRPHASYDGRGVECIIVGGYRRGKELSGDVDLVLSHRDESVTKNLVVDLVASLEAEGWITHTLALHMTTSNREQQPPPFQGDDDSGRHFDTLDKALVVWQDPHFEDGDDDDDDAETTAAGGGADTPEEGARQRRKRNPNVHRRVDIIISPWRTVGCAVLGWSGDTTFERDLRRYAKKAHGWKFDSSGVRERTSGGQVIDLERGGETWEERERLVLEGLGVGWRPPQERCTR
Assay: single-turnover gap-filling primer extension, denaturing gel
Assay type: biochemical
Details: 1-nt gapped 5'-phosphate DNA (D1) templating dT, 150 nM; 4 uM enzyme; 1 mM dATP; 10 mM Mg acetate; pH 7.5; 37 °C

With `Nc1ncnc2c1ncn2[C@H]1C[C@H](O)[C@@H](COP(=O)(O)OP(=O)(O)OP(=O)(O)O)O1` [dATP] the kobs was “Correct nucleotide incorporation proceeded at comparable rates for all the substrates”.
